Results from patent publication US20180230166A1 (Merck Sharp & Dohme Corp., priority 2015, published 2018).
Like-named read-outs stand apart in the source and are kept apart here.

Target: T1, endogenous CETP from serum (Homo sapiens, UniProt P11597)
T1 construct: yielding a concentration of approximately 15 nM endogenous CETP in the assay; from tissue; host or cells: human serum (95% of the assay volume)
T1 sequence (P11597 18-493): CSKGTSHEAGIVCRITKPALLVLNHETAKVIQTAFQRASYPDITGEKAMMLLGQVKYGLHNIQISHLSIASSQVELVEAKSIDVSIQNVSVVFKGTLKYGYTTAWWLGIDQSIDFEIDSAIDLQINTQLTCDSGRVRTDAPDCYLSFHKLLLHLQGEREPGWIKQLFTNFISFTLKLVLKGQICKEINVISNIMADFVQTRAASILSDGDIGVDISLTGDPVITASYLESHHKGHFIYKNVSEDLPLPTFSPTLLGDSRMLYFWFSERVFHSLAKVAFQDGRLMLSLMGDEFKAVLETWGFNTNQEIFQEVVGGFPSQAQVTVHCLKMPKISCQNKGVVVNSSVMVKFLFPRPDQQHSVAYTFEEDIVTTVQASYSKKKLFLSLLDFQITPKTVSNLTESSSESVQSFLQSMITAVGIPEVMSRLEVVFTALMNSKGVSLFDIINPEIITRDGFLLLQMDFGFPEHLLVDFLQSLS
Test: RTA assay in 95% human serum (95% RTA), CETP-catalyzed CE and TG transfer
Assay type: biochemical
Method: Reagents and sources are: [3H] cholesteryl oleate (GE #TRK.886), [3H] Triolein (Perkin-Elmer NET-431), Butylated hydroxyl toluene (Aldrich, #D4740-4), DOPC (Sigma, #P6354), Sodium Bromide (Fisher scientific #S255-500), PEG 8000 (Fisher, #BP233-1), and human HDL (Intracel Corp #RP-036).
Both assays measure the transfer of [3H] cholesteryl oleate or [3H] triolein from exogenous LDL to HDL.
Radiolabeled donor particles are generated by first combining 100 μl of 200 μM butylated hydroxyl toluene in CHCl3, 216 μL of 21.57 mM DOPC in EtOH, and either 500 μCi [3H]-triolein (Perkin Elmer #NET-431) or 500 μCi [3H]-cholesteryl oleate (GE #TRK886) in a glass tube. Reagents are mixed, dried under nitrogen, and then resuspended in 2 mL of 50 mM Tris, 27 μM EDTA at pH 7.4. After a brief vortex, the solution is sonicated until clear and mixed with 20 mL of fresh human serum. The mixture is incubated overnight at 37° C. The [3H] labeled LDL substrate is separated at 1.063 g/ml density by sequential ultracentrifugal flotation in NaBr according to the method of Havel, Eder, et al., 1955, and Chapman, Goldstein, et al., 1981. Once isolated the particles are dialyzed 3× in CETP buffer (50 mM Tris, pH 7.4, 100 mM NaCl, 1 mM EDTA). Human HDL is purchased from Intracel and used as the acceptor particles.
Transfer assays are performed in a 96-well v-bottom polypropylene plate. […] 1 μL of each test compound diluted in DMSO is added to 47 μL of assay cocktail per well and incubated at 37° C. for 1 hour. To initiate the transfer reaction, 2 μL radiolabeled LDL is added. After an additional 60 min of incubation at 37° C., the transfer action is terminated by precipitation of LDL with an equal volume of 20% W/V PEG 8000. The plates are centrifuged at 2000 rpm for 30 minutes at 4° C. A 40 μL aliquot of the HDL-containing supernatant is transferred to a Packard Optiplate™ with 200 μL of MicroScint™ 20. After mixing, plates are counted by liquid scintillation. Counts present in the supernatant for blanks (wells containing only HDL acceptor, CETP buffer and DMSO) are subtracted from those containing test compounds and used to correct for non-specific transfer.
For the transfer assay using endogenous CETP from serum (95% RTA), the same procedure is used except that human serum is added such that a final concentration of serum of 95% of the total assay volume is achieved, yielding a concentration of approximately 15 nM endogenous CETP in the assay. This is then combined with HDL and CETP buffer and the reaction proceeds as above and is terminated as described.
Comparison of the counts of samples with inhibitors to an uninhibited (DMSO only) positive control yield a percent inhibition. A plot of percent inhibition vs. log of inhibitor concentration, fit to a Sigmoidal 4 parameter equation is used to calculate IC50.
Starting materials are commercially available or are made using known procedures or as shown below. The examples may be synthesized using the general schemes provided below. The data reported for the examples below were obtained using the RTA assay in 95% human serum. […] When compounds of Formula I are mentioned herein, such compounds include compounds defined generically by Formula I and also the specific examples disclosed herein.

[1] = RTA assay in 95% human serum, read-out: IC50

COc1ccc(-c2ccc(C(=O)O)cc2C)cc1-c1ccc(C(F)(F)F)cc1[C@@H]1CC[C@H]2[C@@H](c3cc(C(F)(F)F)cc(C(F)(F)F)c3)CC(=O)N12 [Example 2, 2″-((3S,7R,7aS)-7-(3,5-bis(trifluoromethyl)phenyl)-5-oxohexahydro-1H-pyrrolizin-3-yl)-4′-methoxy-2-methyl-4″-(trifluoromethyl)-[1,1′:3′,1″-terphenyl]-4-carboxylic acid]
IC50 (95% human serum, endogenous CETP, read-out: RTA (95% HS)): 1830 nM

COc1ncc(-c2c(C)cc(C(=O)O)cc2C)cc1-c1ccc(C(F)(F)F)cc1[C@@H]1CC[C@H]2[C@@H](c3cc(C(F)(F)F)cc(C(F)(F)F)c3)SC(=O)N12 [Example 3, 4-{5-[2-{(1R,5S,7aS)-1-[3,5-bis(trifluoromethyl)phenyl]-3-oxotetrahydro-1H-pyrrolo[1,2-c][1,3]thiazol-5-yl}-4-(trifluoromethyl)phenyl]-6-methoxypyridin-3-yl}-3,5-dimethylbenzoic acid]
IC50 [1]: 164 nM

COc1ncc(-c2ccc(C(=O)O)cc2C)cc1-c1ccc(C(F)(F)F)cc1[C@@H]1CC[C@H]2[C@@H](c3cc(C(F)(F)F)cc(C(F)(F)F)c3)SC(=O)N12 [Example 4, 4-{5-[2-{(1R,5S,7aS)-1-[3,5-bis(trifluoromethyl)phenyl]-3-oxotetrahydro-1H-pyrrolo[1,2-c][1,3]thiazol-5-yl}-4-(trifluoromethyl)phenyl]-6-methoxypyridin-3-yl}-3-methylbenzoic acid]
IC50 [1]: 559 nM

COc1ncc(-c2ccc(C(=O)O)cc2C)cc1-c1ccc(C(F)(F)F)cc1[C@@H]1CC[C@H]2[C@@H](c3cc(F)cc(C(F)(F)F)c3)SC(=O)N12 [Example 5, 4-{5-[2-{(1R,5S,7aS)-1-[3-fluoro-5-(trifluoromethyl)phenyl]-3-oxotetrahydro-1H-pyrrolo[1,2-c][1,3]thiazol-5-yl}-4-(trifluoromethyl)phenyl]-6-methoxypyridin-3-yl}-3-methylbenzoic acid]
IC50 [1]: 285 nM

COc1ccc(-c2ccc(C(=O)O)cc2C)cc1-c1ccc(C(F)(F)F)cc1[C@@H]1CC[C@H]2[C@@H](c3cc(F)cc(C(F)(F)F)c3)SC(=O)N12 [Example 6, 2″-{(1R,5S,7aS)-1-[3-flluoro-5-(trifluoromethyl)phenyl]-3-oxotetrahydro-1H-pyrrolo[1,2-c][1,3]thiazol-5-yl}-4′-methoxy-2-methyl-4″-(trifluoromethyl)-1,1′:3′,1″-terphenyl-4-carboxylic acid]
IC50 [1]: 926 nM

COc1cc(F)c(C(C)C)cc1-c1ccc(C(F)(F)F)cc1[C@@H]1CC[C@H]2[C@@H](c3cc(F)cc(C(F)(F)F)c3)SC(=O)N12 [Example 7, (1R,5S,7aS)-5-[4′-fluoro-2′-methoxy-5′-(1-methylethyl)-4-(trifluoromethyl)biphenyl-2-yl]-1-[3-fluoro-5-(trifluoromethyl)phenyl]tetrahydro-1H-pyrrolo[1,2-c][1,3]thiazol-3-one]
IC50 [1]: 2000 nM

COc1ncc(-c2c(C)cc(C(=O)O)cc2C)cc1-c1ccc(C(F)(F)F)cc1[C@@H]1CC[C@H]2[C@@H](c3ccnc(C(F)(F)F)c3)SC(=O)N12 [Example 8, 4-{6-methoxy-5-[2-{(1R,5S,7aS)-3-oxo-1-[2-(trifluoromethyl)pyridin-4-yl]tetrahydro-1H-pyrrolo[1,2-c][1,3]thiazol-5-yl}-4-(trifluoromethyl)phenyl]pyridin-3-yl}-3,5-dimethylbenzoic acid]
IC50 [1]: 143 nM

COc1ccc(-c2ccc(C(=O)O)cc2C)cc1-c1ccc(C(F)(F)F)cc1[C@@H]1CC[C@H]2[C@@H](c3ccnc(C(F)(F)F)c3)SC(=O)N12 [Example 9, 4′-methoxy-2-methyl-2″-{(1R,5S,7aS)-3-oxo-1-[2-(trifluoromethyl)pyridin-4-yl]tetrahydro-1H-pyrrolo[1,2-c][1,3]thiazol-5-yl}-4″-(trifluoromethyl)-1,1′:3′,1″-terphenyl-4-carboxylic acid]
IC50 [1]: 1990 nM

COc1ncc(-c2ccc(C(=O)O)cc2C)cc1-c1ccc(C(F)(F)F)cc1[C@@H]1CC[C@H]2[C@@H](c3ccnc(C(F)(F)F)c3)SC(=O)N12 [Example 10, 4-{6-methoxy-5-[2-{(1R,5S,7aS)-3-oxo-1-[2-(trifluoromethyl)pyridin-4-yl]tetrahydro-1H-pyrrolo[1,2-c][1,3]thiazol-5-yl}-4-(trifluoromethyl)phenyl]pyridin-3-yl}-3-methylbenzoic acid]
IC50 [1]: 3940 nM

COc1cc(F)c(C(C)C)cc1-c1ccc(C(F)(F)F)cc1[C@@H]1CC[C@H]2[C@@H](c3ccnc(C(F)(F)F)c3)SC(=O)N12 [Example 11, (1R,5S,7aS)-5-[4′-fluoro-2′-methoxy-5′-(1-methylethyl)-4-(trifluoromethyl)biphenyl-2-yl]-1-[2-(trifluoromethyl)pyridin-4-yl]tetrahydro-1H-pyrrolo[1,2-c][1,3]thiazol-3-one]
IC50 [1]: 2520 nM

COc1ccc([C@H]2CC[C@H](C(=O)O)CC2)cc1-c1ccc(C(F)(F)F)cc1[C@@H]1CC[C@H]2[C@@H](c3cc(F)cc(C(F)(F)F)c3)SC(=O)N12 [Example 12, trans-4-[2′-{(1R,5S,7aS)-1-[3-fluoro-5-(trifluoromethyl)phenyl]-3-oxotetrahydro-1H-pyrrolo[1,2-c][1,3]thiazol-5-yl}-6-methoxy-4′-(trifluoromethyl)biphenyl-3-yl]cyclohexanecarboxylic acid]
IC50 [1]: 1500 nM

COc1ncc(-c2c(C)cc(C(=O)O)cc2C)cc1-c1ccc(C(F)(F)F)cc1[C@@H]1CC[C@H]2[C@@H](c3cc(C(F)(F)F)cc(C(F)(F)F)c3)CC(=O)N12 [Example 14, 4-{5-[2-{(3S,7R,7aS)-7-[3,5-bis(trifluoromethyl)phenyl]-5-oxohexahydro-1H-pyrrolizin-3-yl}-4-(trifluoromethyl)phenyl]-6-methoxypyridin-3-yl}-3,5-dimethylbenzoic acid]
IC50 [1]: 321 nM

COc1ncc(-c2ccc(C(=O)O)cc2C)cc1-c1ccc(C(F)(F)F)cc1[C@@H]1CC[C@H]2[C@@H](c3cc(C(F)(F)F)cc(C(F)(F)F)c3)CC(=O)N12 [Example 16, 4-{5-[2-{(3S,7R,7aS)-7-[3,5-bis(trifluoromethyl)phenyl]-5-oxohexahydro-1H-pyrrolizin-3-yl}-4-(trifluoromethyl)phenyl]-6-methoxypyridin-3-yl}-3-methylbenzoic acid]
IC50 [1]: 2940 nM

COc1ncc(-c2c(C)cc(C(=O)O)cc2C)cc1-c1ccc(C(F)(F)F)cc1[C@@H]1CC[C@H]2[C@@H](c3cc(F)cc(C(F)(F)F)c3)CC(=O)N12 [Example 17, 4-{5-[2-{(3S,7R,7aS)-7-[3-fluoro-5-(trifluoromethyl)phenyl]-5-oxohexahydro-1H-pyrrolizin-3-yl}-4-(trifluoromethyl)phenyl]-6-methoxypyridin-3-yl}-3,5-dimethylbenzoic acid]
IC50 [1]: 328 nM

COc1cc(F)c(C(C)C)cc1-c1ccc(C(F)(F)F)cc1[C@@H]1CC[C@H]2[C@@H](c3cc(F)cc(C(F)(F)F)c3)CC(=O)N12 [Example 18, (1R,5S,7aS)-5-[4′-fluoro-2′-methoxy-5′-(1-methylethyl)-4-(trifluoromethyl)biphenyl-2-yl]-1-[3-fluoro-5-(trifluoromethyl)phenyl]hexahydro-3H-pyrrolizin-3-one]
IC50 [1]: 2690 nM
